According to patent publication US20040116354A1, “Supplementary immunotherapeutics to be used after lung cancer removal” (priority 2001, published 2004):

Legend:
[1] = system: non-small cell lung cancer; details: histopathological stages I and II; 90 mg twice weekly for 5 years; 227 cases; cited from earlier work
[2] = system: lung squamous cell carcinoma; details: histopathological stage I; 30 mg daily for one year or longer; 21 cases; with or without tegaful; cited from earlier work
[3] = system: lung squamous cell carcinoma in the histopathological stage I; assay: multicenter double blind comparative clinical test, ubenimex preparation vs placebo after complete resection; type: in vivo, human
Procedure: With complete resection patients of lung squamous cell carcinoma in the histopathological stage I, a multicenter double blind comparative test using an ubenimex preparation (containing 30 mg ubenimex) and a placebo preparation (a control contentaining no ubenimex) was carried out. The ubenimex preparation or the placebo preparation was administered orally once a day. The dosing period of these preparations was 2 years after surgical resection. The observation period was 5 years or more including the subsequent period of 3 years or more of no administration after the dosing period. The survival time and recurrence-free survival time in the collected 389 cases (189 cases at the stage IA and 200 cases at the stage IB) were compared between the two groups, namely the ubenimex group and the placebo group by the Kaplan-Meier method. Tables 1 and 2 show the results of the statistic analysis by the generalized Wilcoxon test and the Log-Rank test. […] In these tables, the “U group” means the ubenimex-administered group and the “P group” means the placebo-administered group.

mice = details: 298 mg/kg (i.p.); cited from earlier work
humans = system: humans; set-up: dose or concentration left out as unconfirmed; details: cited from earlier work
[4] = Stage IA (189 cases), 30 mg orally once a day for 2 years
[5] = Stage IB (200 cases), 30 mg orally once a day for 2 years
[6] = total cases stage I (389 cases), 30 mg orally once a day for 2 years after resection, Kaplan-Meier

SMILES: CC(C)C[C@H](NC(=O)[C@@H](O)[C@H](N)Cc1ccccc1)C(=O)O [ubenimex, (−)-N-((2S, 3R)-3-amino-2-hydroxy-4-phenylbutyryl)-L-leucine]
- recurrence-free survival time vs non-administered group [1]: favorable trend compared with the non-administered group in terms of recurrence-free survival time but the trend is far from significance
- survival time vs ubenimex non-administered group [2]: prolonged
- incidence of appetite loss (only adverse effect significantly occurring) ([3]; 30 mg orally once a day for 2 years): 2.5%
- 5-year recurrence-free survival ratio [3, 4]: 73%
- 5-year survival ratio (survival time) [3, 4]: 84%
- 5-year recurrence-free survival ratio [3, 5]: 68%
- 5-year survival ratio (survival time) [3, 5]: 77%
- 5-year recurrence-free survival ratio [3, 6]: 70%
- 5-year survival ratio (survival time) [3, 6]: 81%
- toxicity in mice (mice): no observed toxicity
- adverse effects in humans (humans): no specific adverse effects observed
